# Assay results published in US20140343000A1 (priority 2011, published 2014).
# System: recombinant NL4-3 virus (Renilla luciferase in nef, Gag P373S; NLRluc) in MT-2 cells
# Assay: whole plant or invertebrate
# Assay type: cell-based, HIV
# Settings: Renilla, NL43, luciferase activity in cells infected for 4-5 days with NLRluc recombinants, serial dilutions of inhibitor; class symbols (key in Table 1); read-out: EC50
# Procedure, shortened: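 First, reporter virus was generated in 293T cells and titered on MT-2 cells. Next, MT-2 cells were infected in the presence of serial compound dilutions for 4-5 days. Finally, cells were lysed and luciferase activity was measured to quantify inhibition.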
row,Structure (SMILES),EC50 [nM]
1,"C=C(C)[C@@H]1CC[C@]2(NC(=O)CNc3ccc(F)cc3)CC[C@]3(C)[C@H](CC[C@@H]4[C@@]5(C)CC=C(c6ccc(C(=O)O)cc6)C(C)(C)[C@@H]5CC[C@]43C)[C@@H]12 [Example 125, 4-((1R,3aS,5aR,5bR,7aR,11aS,11bR,13aR,13bR)-3a-(2-(4-fluorophenylamino)acetamido)-5a,5b,8,8,11a-pentamethyl-1-(prop-1-en-2-yl)-2,3,3a,4,5,5a,5b,6,7,7a,8,11,11a,11b,12,13,13a,13b-octadecahydro-1H-cyclopenta[a]chrysen-9-yl)benzoic acid]",< 100
2,"C=C(C)[C@@H]1CC[C@]2(NC(=O)Cc3ncccn3)CC[C@]3(C)[C@H](CC[C@@H]4[C@@]5(C)CC=C(c6ccc(C(=O)O)cc6)C(C)(C)[C@@H]5CC[C@]43C)[C@@H]12 [Example 126, 4-((1R,3aS,5aR,5bR,7aR,11aS,11bR,13aR,13bR)-5a,5b,8,8,11a-pentamethyl-1-(prop-1-en-2-yl)-3a-(2-(pyrimidin-2-yl)acetamido)-2,3,3a,4,5,5a,5b,6,7,7a,8,11,11a,11b,12,13,13a,13b-octadecahydro-1H-cyclopenta[a]chrysen-9-yl)benzoic acid]",< 100
3,"C=C(C)[C@@H]1CC[C@]2(NC(=O)NCC(=O)N(C)C)CC[C@]3(C)[C@H](CC[C@@H]4[C@@]5(C)CC=C(c6ccc(C(=O)O)cc6)C(C)(C)[C@@H]5CC[C@]43C)[C@@H]12 [Example 31, 4-((1R,3aS,5aR,5bR,7aR,11aS,11bR,13aR,13bR)-3a-(3-(2-(dimethylamino)-2-oxoethyl)ureido)-5a,5b,8,8,11a-pentamethyl-1-(prop-1-en-2-yl)-2,3,3a,4,5,5a,5b,6,7,7a,8,11,11a,11b,12,13,13a,13b-octadecahydro-1H-cyclopenta[a]chrysen-9-yl)benzoic acid]",< 100
4,C=C(C)[C@@H]1CC[C@]2(NCCN3CCN(S(C)(=O)=O)CC3)CC[C@]3(C)[C@H](CC[C@@H]4[C@@]5(C)CC=C(c6ccc(C(=O)O)c(F)c6)C(C)(C)[C@@H]5CC[C@]43C)[C@@H]12 [Example A8],< 100
5,"C=C(C)[C@@H]1CC[C@]2(NC(=O)N[C@@H](C)C(=O)O)CC[C@]3(C)[C@H](CC[C@@H]4[C@@]5(C)CC=C(c6ccc(C(=O)O)cc6)C(C)(C)[C@@H]5CC[C@]43C)[C@@H]12 [Example 17, 4-((1R,3aS,5aR,5bR,7aR,11aS,11bR,13aR,13bR)-3a-(3-((S)-1-carboxyethyl)ureido)-5a,5b,8,8,11a-pentamethyl-1-(prop-1-en-2-yl)-2,3,3a,4,5,5a,5b,6,7,7a,8,11,11a,11b,12,13,13a,13b-octadecahydro-1H-cyclopenta[a]chrysen-9-yl)benzoic acid]",< 100
6,"C=C(C)[C@@H]1CC[C@]2(NC(=O)C(C(C)C)N3CCS(=O)(=O)CC3)CC[C@]3(C)[C@H](CC[C@@H]4[C@@]5(C)CC=C(c6ccc(C(=O)O)cc6)C(C)(C)[C@@H]5CC[C@]43C)[C@@H]12 (single isomer, unassigned) [Example 110]",< 100
7,"C=C(C)[C@@H]1CC[C@]2(NC(=O)Cc3nnn[nH]3)CC[C@]3(C)[C@H](CC[C@@H]4[C@@]5(C)CC=C(c6ccc(C(=O)O)cc6)C(C)(C)[C@@H]5CC[C@]43C)[C@@H]12 [Example 77, 4-((1R,3aS,5aR,5bR,7aR,11aS,11bR,13aR,13bR)-3a-(2-(1H-tetrazol-5-yl)acetamido)-5a,5b,8,8,11a-pentamethyl-1-(prop-1-en-2-yl)-2,3,3a,4,5,5a,5b,6,7,7a,8,11,11a,11b,12,13,13a,13b-octadecahydro-1H-cyclopenta[a]chrysen-9-yl)benzoic acid]",< 100
